In publication PMC8348983 (International Journal of Molecular Sciences, 2021):

How the values were obtained:
[1] = biological target: human recombinant AChE (Homo sapiens, UniProt P22303); assay: biochemical; type: biochemical
[2] = biological target: POP (prolyloligopeptidase) (Homo sapiens, UniProt P48147); assay: POP inhibition assay; type: biochemical; conditions: bounds marked f: highest tested concentration due to low solubility in buffer; read-out: IC50, POP ± SEM
Protocol: The previously applied procedure was used. Detailed description of the assay can be found in Supplementary Materials.
POP (EC 3.4.21.26) was dissolved in phosphate-buffered saline (PBS; 0.01 M Na/K phosphate buffer, […]
The assay was performed in standard polystyrene 96-well microplates with a flat and clear bottom.
Stock solutions of tested compounds were prepared in DMSO (10 mM). Dilutions (10−3 to 10−7 M) were prepared from the stock solution with deionized H2O; the control was performed with the same DMSO concentration. POP substrate, (Z)-Gly-Pro-p-nitroanilide, was dissolved in 50% 1,4-dioxane (5 mM). For each reaction, PBS (170 μL), tested compound (5 μL), and POP (5 μL) were incubated for 5 min at 37 °C. Then, substrate (20 μL) was added, and the microplate was incubated for 30 min at 37 °C. The formation of p-nitroanilide, directly proportional to the POP activity, was measured […]
Synergy 2, BioTek Instruments, Winooski, VT). The inhibition potency of tested compounds was calculated by nonlinear regression analysis and was expressed as an IC50 value (concentration of inhibitor which causes 50% POP inhibition). […]

[3] = Cytotoxicity, MTT assay; type: cell-based; conditions: human, SH-SY5Y neuroblastoma cells, 24 h incubation
Protocol: The cytotoxicity profile was assessed for compound 6 using the human neuroblastoma SH-SY5Y cell line and MTT assay. At a concentration of 10 µM, compound 6 was completely devoid of cytotoxicity, with viability reaching 95.1 ± 2.6%.
The neuroblastoma cell line SH-SY5Y (Sigma-Aldrich, St. Louis, MO, USA) was used to evaluate cytotoxicity of the tested compounds. […]
The MTT (3-(4,5-dimethylthiazol-2-yl)-2,5-diphenyl-tetraziolium bromide (Sigma–Aldrich) reduction assay was used for measurement of the compounds’ cytotoxicity, according to Mosmann. MTT is a water-soluble tetrazolium salt that is converted to purple formazan by succinate dehydrogenase in mitochondria of viable cells. Cell viability was detected after 24-h incubation with the tested substances. For the assay, SH-SY5Y cells were seeded into 96-well plates in 100 µL volume and at a density of 20 × 10^3. Cells were allowed to attach overnight before the treatment. The stock solutions of tested compounds were prepared in dimethylsulfoxide (DMSO, Sigma-Aldrich), which were serially diluted in DMEM and added to the cells in a 96-well culture plate. […] The optical density of each well was measured using a Spark® multimode microplate reader (Tecan Group Ltd., Männedorf, Switzerland) at 570 nm. The cell viability was expressed as a percentage of the untreated control. […]

[4] = biological target: T1, MAO-B (Homo sapiens, UniProt P27338); assay: MAO-B inhibition assay; type: biochemical
T1 construct: purchased Merck, Germany
T1 sequence (P27338 1-520): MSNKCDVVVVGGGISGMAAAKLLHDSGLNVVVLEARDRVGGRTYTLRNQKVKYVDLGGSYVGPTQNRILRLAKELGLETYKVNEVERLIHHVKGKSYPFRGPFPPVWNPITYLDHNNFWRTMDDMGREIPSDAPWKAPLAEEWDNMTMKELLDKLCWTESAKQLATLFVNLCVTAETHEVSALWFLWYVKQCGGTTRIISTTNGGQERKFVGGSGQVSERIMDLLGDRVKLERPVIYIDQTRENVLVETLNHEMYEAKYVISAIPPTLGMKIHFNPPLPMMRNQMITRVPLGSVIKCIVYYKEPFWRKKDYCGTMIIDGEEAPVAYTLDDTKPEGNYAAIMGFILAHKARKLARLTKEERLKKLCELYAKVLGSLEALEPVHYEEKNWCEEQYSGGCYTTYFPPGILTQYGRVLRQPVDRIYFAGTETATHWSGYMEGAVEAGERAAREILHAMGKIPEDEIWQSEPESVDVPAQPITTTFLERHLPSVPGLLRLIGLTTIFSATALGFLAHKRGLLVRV
Protocol: Since monoamine oxidase (MAO; EC 1.4.3.4) inhibitors are considered as neuroprotective agents, compound 6 was screened at two concentrations (1 and 10 µM) for its inhibition potential against both isoforms of human MAOs. […]; MAO inhibition assay was performed as previously described. Supplementary Materials provides details of this assay. […]
The reaction mixture contains 2.5mg/mL MAO -A or 6.25mg/mLMAO-B enzyme (Merck, Germany) and inhibitor in final concentrations of […] in 50 mM potassiumphosphate buffer with 20% (v/v) glycerol (pH 7.5). […] The sample was then centrifuged (16.500 g) for10 min.The deamination product of kynuramine formed during the enzymatic reaction 4-hydroxyquinoline (4-HQ) was determined by UHPLC-MS on a Zorbax RRHD Eclipse plus C18 column (2.1 mm x 50 mm, […]) (Agilent Technologies, USA), by using a 6470 Series Triple Quadrupole mass spectrometer (Agilent Technologies, USA) as detector with electrospray ionisation – positive ion mode. […]
0.1% formic acid in water; (B) 0.1% formic acid in acetonitrile. IC 50of individual compounds were determined by nonlinear regression usingGraphPad Prism 8.0 (GraphPad Software, USA).

Chain of human recombinant AChE (P22303 32-614): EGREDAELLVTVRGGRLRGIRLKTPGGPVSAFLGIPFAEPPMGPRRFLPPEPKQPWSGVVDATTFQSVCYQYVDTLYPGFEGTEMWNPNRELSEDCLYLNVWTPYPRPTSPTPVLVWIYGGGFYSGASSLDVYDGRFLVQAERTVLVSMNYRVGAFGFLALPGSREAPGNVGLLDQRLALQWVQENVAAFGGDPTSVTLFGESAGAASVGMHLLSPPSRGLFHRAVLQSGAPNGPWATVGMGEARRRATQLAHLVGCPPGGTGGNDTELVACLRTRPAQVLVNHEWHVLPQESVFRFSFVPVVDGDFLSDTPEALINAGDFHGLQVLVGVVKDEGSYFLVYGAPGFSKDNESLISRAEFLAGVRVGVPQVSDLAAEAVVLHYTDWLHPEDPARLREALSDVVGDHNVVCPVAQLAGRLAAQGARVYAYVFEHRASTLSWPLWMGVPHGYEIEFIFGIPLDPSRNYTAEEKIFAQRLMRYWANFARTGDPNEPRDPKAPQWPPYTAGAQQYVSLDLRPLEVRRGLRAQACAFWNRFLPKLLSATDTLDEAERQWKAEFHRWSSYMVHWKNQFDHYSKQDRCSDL
Chain of POP (prolyloligopeptidase) (P48147 whole entry): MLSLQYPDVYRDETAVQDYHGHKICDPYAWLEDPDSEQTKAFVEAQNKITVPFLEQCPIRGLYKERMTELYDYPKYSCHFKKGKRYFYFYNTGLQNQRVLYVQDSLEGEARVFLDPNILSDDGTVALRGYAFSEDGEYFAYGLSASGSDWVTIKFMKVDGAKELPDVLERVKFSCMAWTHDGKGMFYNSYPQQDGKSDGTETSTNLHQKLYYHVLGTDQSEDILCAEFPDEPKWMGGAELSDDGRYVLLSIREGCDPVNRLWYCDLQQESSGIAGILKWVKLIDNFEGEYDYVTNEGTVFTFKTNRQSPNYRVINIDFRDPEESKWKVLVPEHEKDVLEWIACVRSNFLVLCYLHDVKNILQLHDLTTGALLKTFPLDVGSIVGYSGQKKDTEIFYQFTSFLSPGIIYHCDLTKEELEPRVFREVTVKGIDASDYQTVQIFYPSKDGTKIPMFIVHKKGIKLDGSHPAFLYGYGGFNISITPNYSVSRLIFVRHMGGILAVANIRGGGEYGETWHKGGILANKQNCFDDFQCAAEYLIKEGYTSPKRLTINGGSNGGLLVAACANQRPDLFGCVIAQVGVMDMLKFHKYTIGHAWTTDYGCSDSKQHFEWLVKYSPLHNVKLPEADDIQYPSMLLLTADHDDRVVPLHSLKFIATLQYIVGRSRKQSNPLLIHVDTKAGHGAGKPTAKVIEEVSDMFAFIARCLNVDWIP

SMILES: C=CCOc1ccc(CCN(CC=C)Cc2ccc(OC)c(OCc3ccccc3)c2)cc1 [Compound 6, N-allyl-N-(3-benzyloxy-4-methoxybenzyl)-2-(4-allyloxyphenyl)ethan-1-amine]
- IC50 ([1]; mean ± SEM of three independent measurements, each in triplicate, read-out: IC50, hAChE ± SEM): > 100 µM
- inhibition at 100 µM ([1]; tested at 100 µM compound concentration, read-out: %Inhibition hAChE ± SEM): 10.1 ± 0.6%
- IC50 [2]: > 79 µM
- viability at 24 h, 10 µM [3]: 95.1 ± 2.6%
- IC50 [4]: > 10 µM
- residual activity of MAO-B ([4]; 1 and 10 µM): higher than 68%
